Results taken from patent US8575158B2, “1-phenyl-substituted heterocyclyl derivatives and their use as prostaglandin D2 receptor modulators” (Actelion Pharmaceuticals Ltd., priority 2010, dated 2013).

Molecular target: T1, hCRTH2 receptor (Homo sapiens, UniProt Q9Y5Y4)
T1 construct: expressed in transfected cells; host or cells: HEK293
T1 sequence (Q9Y5Y4 1-395): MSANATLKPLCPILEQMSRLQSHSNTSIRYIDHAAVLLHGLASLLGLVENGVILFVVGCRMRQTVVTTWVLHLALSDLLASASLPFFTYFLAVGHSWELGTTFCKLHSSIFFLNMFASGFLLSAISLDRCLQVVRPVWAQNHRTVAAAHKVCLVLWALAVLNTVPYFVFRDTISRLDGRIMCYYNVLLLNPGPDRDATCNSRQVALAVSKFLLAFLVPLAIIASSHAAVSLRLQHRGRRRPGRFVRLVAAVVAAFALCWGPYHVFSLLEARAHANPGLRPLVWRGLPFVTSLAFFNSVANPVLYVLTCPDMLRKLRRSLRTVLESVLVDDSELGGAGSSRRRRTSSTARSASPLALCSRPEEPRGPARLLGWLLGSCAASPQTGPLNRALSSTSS
Test: Radioligand displacement assay (3H-PGD2) on hCRTH2 receptor membranes
Format: binding
Conditions: antagonistic activity

[1] = 3H-PGD2 displacement on HEK293-hCRTH2 membrane fragments
[2] = 3H-PGD2 radioligand displacement, HEK293-hCRTH2 membranes

Question: For `O=C(O)COc1ccc(F)cc1C1c2ccc(F)c(F)c2CCN1C(=O)OCc1ccccc1` (racemic) [Example 14, (±)-1-(2-Carboxymethoxy-5-fluoro-phenyl)-5,6-difluoro-3,4-dihydro-1H-isoquinoline-2-carboxylic acid benzyl ester], which IC50 [1] is on record?
Answer: 0.0188 µM

Question: `Cc1ccc2onc(CC(=O)N3CCc4ccccc4C3c3cc(Cl)ccc3OCC(=O)O)c2c1` (racemic) [Example 100, (±)-(4-Chloro-2-{2-[2-(5-methyl-benzo[d]isoxazol-3-yl)-acetyl]-1,2,3,4-tetrahydro-isoquinolin-1-yl}-phenoxy)-acetic acid] was tested. Which IC50 [1] did it give?
Answer: 0.205 µM

Question: For `Cc1[nH]c2ccccc2c1CCC(=O)N1CCc2ccccc2C1c1cc(F)ccc1OCC(=O)O` (racemic) [Example 65, (±)-(4-Fluoro-2-{2-[3-(2-methyl-1H-indol-3-yl)-propionyl]-1,2,3,4-tetrahydro-isoquinolin-1-yl}-phenoxy)-acetic acid], which IC50 [1] is on record?
Answer: 0.191 µM

Question: How did the IC50 [1] turn out when `O=C(O)COc1ccc(-c2cncnc2)cc1C1c2ccccc2CCN1C(=O)OCc1ccccc1` (racemic) [Example 188, (±)-1-(2-Carboxymethoxy-5-pyrimidin-5-yl-phenyl)-3,4-dihydro-1H-isoquinoline-2-carboxylic acid benzyl ester] was run?
Answer: 0.0894 µM

Question: With `O=C(O)COc1ccc(Cl)cc1C1c2cc(F)cc(F)c2CCN1C(=O)OCc1ccccc1` (racemic) [Example 43, (±)-1-(2-Carboxymethoxy-5-chloro-phenyl)-5,7-difluoro-3,4-dihydro-1H-isoquinoline-2-carboxylic acid benzyl ester] as the molecule, how does the IC50 [1] read?
Answer: 0.00494 µM

Question: Which IC50 [1] does the source give for `O=C(O)COc1cccc(F)c1C1c2ccccc2CCN1C(=O)OCc1ccccc1` (racemic) [Example 216, (±)-1-(2-Carboxymethoxy-6-fluoro-phenyl)-3,4-dihydro-1H-isoquinoline-2-carboxylic acid benzyl ester] here?
Answer: 0.182 µM

Question: How did the IC50 [2] turn out when `O=C(O)COc1ccc(Cl)cc1C1c2ccccc2CCN1C(=O)CCn1nc(Cl)c2ccccc21` (racemic) [Example 383] was run?
Answer: 0.0085 µM

Question: With `CN(CC(=O)N1CCc2ccccc2C1c1cc(F)ccc1OCC(=O)O)S(=O)(=O)c1cccc(F)c1` (racemic) [Example 211] as the molecule, how does the IC50 [1] read?
Answer: 0.261 µM

Question: For `Cc1ccccc1C1CC1C(=O)N1CCc2ccccc2C1c1cc(Cl)ccc1OCC(=O)O` (single isomer, unassigned) [Example 153, (±)-{4-Chloro-2-[2-((trans)-2-o-tolyl-cyclopropanecarbonyl)-1,2,3,4-tetrahydro-isoquinolin-1-yl]-phenoxy}-acetic acid (diastereosiomer 1)], which IC50 [1] is on record?
Answer: 0.123 µM

Question: For `O=C(O)COc1ccc(Cl)cc1C1c2ccccc2CCN1C(=O)CN1CCCc2ccccc21` (racemic) [Example 79, (±)-{4-Chloro-2-[2-(2-3,4-dihydro-2H-quinolin-1-yl-acetyl)-1,2,3,4-tetrahydro-isoquinolin-1-yl]-phenoxy}-acetic acid], which IC50 [1] is on record?
Answer: 0.0629 µM

Question: With `CCS(=O)(=O)c1ccc(OCC(=O)O)c(C2c3ccccc3CCN2C(=O)OCc2ccccc2)c1` (racemic) [Example 184] as the molecule, how does the IC50 [1] read?
Answer: 0.346 µM

Question: `N#Cc1ccc(OCC(=O)O)c(C2c3cccc(F)c3CCN2C(=O)OCc2ccccc2)c1` (racemic) [Example 19, (±)-1-(2-Carboxymethoxy-5-cyano-phenyl)-5-fluoro-3,4-dihydro-1H-isoquinoline-2-carboxylic acid benzyl ester] was tested. Which IC50 [1] did it give?
Answer: 0.00938 µM

Question: `O=C(O)COc1ccc(Cl)cc1[C@@H]1c2ccc(F)cc2CCN1C(=O)CCn1ncc2c(F)cccc21` [Example 399] was tested. Which IC50 [2] did it give?
Answer: 0.144 µM

Question: With `Cc1cn(CCC(=O)N2Cc3ccccc3C2c2cc(Cl)ccc2OCC(=O)O)c2ccccc12` (racemic) [Example 519] as the molecule, how does the IC50 [2] read?
Answer: 0.0374 µM

Question: Which IC50 [2] does the source give for `O=C(O)COc1ccc(Cl)cc1[C@@H]1c2ccccc2CCN1C(=O)OCCc1cccc(F)c1` [Example 286, (S)-1-(2-Carboxymethoxy-5-chloro-phenyl)-3,4-dihydro-1H-isoquinoline-2-carboxylic acid 2-(3-fluoro-phenyl)-ethyl ester] here?
Answer: 0.00267 µM

Question: Which IC50 [1] does the source give for `COc1ccc2[nH]cc(CCC(=O)N3CCc4ccccc4C3c3cc(F)ccc3OCC(=O)O)c2c1` (racemic) [Example 64, (±)-(4-Fluoro-2-{2-[3-(5-methoxy-1H-indol-3-yl)-propionyl]-1,2,3,4-tetrahydro-isoquinolin-1-yl}-phenoxy)-acetic acid] here?
Answer: 0.0497 µM

Question: How did the IC50 [2] turn out when `O=C(O)COc1ccc(Cl)cc1[C@@H]1c2ccc(F)cc2CCN1C(=O)OCn1ncc2ccccc21` [Example 347, (S)-1-(2-Carboxymethoxy-5-chloro-phenyl)-6-fluoro-3,4-dihydro-1H-isoquinoline-2-carboxylic acid indazol-1-ylmethyl ester] was run?
Answer: 0.00087 µM

Question: Which IC50 [2] does the source give for `O=C(O)COc1ccc(Cl)cc1C1c2ccccc2CN1C(=O)CCn1ncc2c(Cl)cccc21` (stereo not drawn) [Example 550] here?
Answer: 0.24 µM

Question: How did the IC50 [1] turn out when `Cc1ccc(COC(=O)N2CCc3ccccc3C2c2cc(Cl)ccc2OCC(=O)O)c(C)c1` (racemic) [Example 245] was run?
Answer: 0.00287 µM

Question: `Cc1nn(CCC(=O)N2Cc3ccccc3C2c2cc(Cl)ccc2OCC(=O)O)c2cc(Cl)ccc12` (single isomer, unassigned) [Example 532, (4-Chloro-2-{2-[3-(6-chloro-3-methyl-indazol-1-yl)-propionyl]-2,3-dihydro-1H-isoindol-1-yl}-phenoxy)-acetic acid] was tested. Which IC50 [2] did it give?
Answer: 0.0407 µM

Question: For `Cc1ccccc1CCCC(=O)N1CCc2ccccc2C1c1cc(Cl)ccc1OCC(=O)O` (racemic) [Example 111, (±)-{4-Chloro-2-[2-(4-o-tolyl-butyryl)-1,2,3,4-tetrahydro-isoquinolin-1-yl]-phenoxy}-acetic acid], which IC50 [1] is on record?
Answer: 0.045 µM

Question: Which IC50 [2] does the source give for `O=C(O)COc1ccc(Cl)cc1[C@@H]1c2ccc(F)c(F)c2CCN1C(=O)OCc1cccc(F)c1` [Example 350, (S)-1-(2-Carboxymethoxy-5-chloro-phenyl)-5,6-difluoro-3,4-dihydro-1H-isoquinoline-2-carboxylic acid 3-fluoro-benzyl ester] here?
Answer: 0.00338 µM

Question: Which IC50 [2] does the source give for `O=C(O)COc1ccc(Cl)cc1C1c2ccccc2CN1C(=O)CCn1ncc2cc(F)ccc21` (single isomer, unassigned) [Example 527, (4-Chloro-2-{2-[3-(5-fluoro-indazol-1-yl)-propionyl]-2,3-dihydro-1H-isoindol-1-yl}-phenoxy)-acetic acid] here?
Answer: 0.00812 µM

Question: How did the IC50 [1] turn out when `Cn1ccc(COCC(=O)N2CCc3ccccc3C2c2cc(F)ccc2OCC(=O)O)n1` (racemic) [Example 197, (±)-(4-Fluoro-2-{2-[2-(1-methyl-1H-pyrazol-3-ylmethoxy)-acetyl]-1,2,3,4-tetrahydro-isoquinolin-1-yl}-phenoxy)-acetic acid] was run?
Answer: 0.323 µM

Question: Which IC50 [1] does the source give for `O=C(O)COc1ccc(-c2noc(=S)[nH]2)cc1C1c2ccccc2CCN1C(=O)OCc1ccccc1` (racemic) [Example 214, (±)-1-[2-Carboxymethoxy-5-(5-thioxo-4,5-dihydro-[1,2,4]oxadiazol-3-yl)-phenyl]-3,4-dihydro-1H-isoquinoline-2-carboxylic acid benzyl ester] here?
Answer: 0.147 µM

Question: How did the IC50 [1] turn out when `O=C(O)COc1ccc(F)cc1C1c2cc(F)cc(F)c2CCN1C(=O)OCc1ccccc1` (racemic) [Example 42, (±)-1-(2-Carboxymethoxy-5-fluoro-phenyl)-5,7-difluoro-3,4-dihydro-1H-isoquinoline-2-carboxylic acid benzyl ester] was run?
Answer: 0.00684 µM

Question: Which IC50 [1] does the source give for `O=C(O)COc1ccc(Cl)cc1C1c2ccccc2CCN1C(=O)OCc1ccccc1Cl` (racemic) [Example 164] here?
Answer: 0.00094 µM

Question: How did the IC50 [2] turn out when `O=C(O)COc1ccc(Cl)cc1[C@@H]1c2ccc(F)c(F)c2CCN1C(=O)OCc1nc2ccccc2o1` [Example 320, (S)-1-(2-Carboxymethoxy-5-chloro-phenyl)-5,6-difluoro-3,4-dihydro-1H-isoquinoline-2-carboxylic acid benzooxazol-2-ylmethyl ester] was run?
Answer: 0.00052 µM

Question: Which IC50 [1] does the source give for `Cc1ccccc1COC(=O)N1CCc2ccccc2C1c1cc(Cl)ccc1OCC(=O)O` (racemic) [Example 235] here?
Answer: 0.00562 µM

Question: With `O=C(O)COc1ccc(Cl)cc1C1c2cccc(F)c2CCN1C(=O)COCc1ccccc1Cl` (racemic) [Example 120, (±)-(4-Chloro-2-{2-[2-(2-chloro-benzyloxy)-acetyl]-5-fluoro-1,2,3,4-tetrahydro-isoquinolin-1-yl}-phenoxy)-acetic acid] as the molecule, how does the IC50 [1] read?
Answer: 0.0333 µM

Question: How did the IC50 [2] turn out when `O=C(O)COc1ccc(Cl)cc1[C@@H]1c2ccc(F)c(F)c2CCN1C(=O)OCCc1ccccc1` [Example 310, (S)-1-(2-Carboxymethoxy-5-chloro-phenyl)-5,6-difluoro-3,4-dihydro-1H-isoquinoline-2-carboxylic acid phenethyl ester] was run?
Answer: 0.00514 µM

Question: For `O=C(O)COc1ccc(F)cc1C1c2ccccc2CCN1C(=O)CCc1ccccc1F` (racemic) [Example 139, (±)-(4-Fluoro-2-{2-[3-(2-fluoro-phenyl)-propionyl]-1,2,3,4-tetrahydro-isoquinolin-1-yl}-phenoxy)-acetic acid], which IC50 [1] is on record?
Answer: 0.233 µM

Question: With `Cc1cn(CCC(=O)N2CCc3ccccc3C2c2cc(Cl)ccc2OCC(=O)O)c2ccc(F)cc12` (racemic) [Example 368] as the molecule, how does the IC50 [2] read?
Answer: 0.0207 µM

Question: Which IC50 [2] does the source give for `O=C(O)COc1ccc(Cl)cc1C1c2ccccc2CN1C(=O)CCn1ncc2cccc(F)c21` (single isomer, unassigned) [Example 537, (4-Chloro-2-{2-[3-(7-fluoro-indazol-1-yl)-propionyl]-2,3-dihydro-1H-isoindol-1-yl}-phenoxy)-acetic acid] here?
Answer: 0.0258 µM

Question: Which IC50 [2] does the source give for `Cc1cncc(OCC(=O)N2CCc3ccccc3C2c2cc(Cl)ccc2OCC(=O)O)c1` (racemic) [Example 474] here?
Answer: 0.198 µM

Question: How did the IC50 [1] turn out when `O=C(O)COc1ccc(F)cc1C1c2ccccc2CCN1C(=O)Cc1ccc2c(c1)OCCO2` (racemic) [Example 50] was run?
Answer: 0.182 µM
